Test results taken from ChEMBL document CHEMBL2073839, “Heterologous expression and functional characterization of a mouse renal organic anion transporter in mammalian cells” (J Biol Chem, 1999).

Legend:
Format in all cases: functional, cell-based
[1] = target: T1, Solute carrier family 22 member 6 (Mus musculus, UniProt Q8VC69); experiment: TP_TRANSPORTER: inhibition of PAH uptake (PAH: 20 uM, alpha-KG: 1000 uM) in OAT-expressing COS-7 cells; conditions: monkey, cos-7, 1000 µM
T1 sequence (Q8VC69 whole entry): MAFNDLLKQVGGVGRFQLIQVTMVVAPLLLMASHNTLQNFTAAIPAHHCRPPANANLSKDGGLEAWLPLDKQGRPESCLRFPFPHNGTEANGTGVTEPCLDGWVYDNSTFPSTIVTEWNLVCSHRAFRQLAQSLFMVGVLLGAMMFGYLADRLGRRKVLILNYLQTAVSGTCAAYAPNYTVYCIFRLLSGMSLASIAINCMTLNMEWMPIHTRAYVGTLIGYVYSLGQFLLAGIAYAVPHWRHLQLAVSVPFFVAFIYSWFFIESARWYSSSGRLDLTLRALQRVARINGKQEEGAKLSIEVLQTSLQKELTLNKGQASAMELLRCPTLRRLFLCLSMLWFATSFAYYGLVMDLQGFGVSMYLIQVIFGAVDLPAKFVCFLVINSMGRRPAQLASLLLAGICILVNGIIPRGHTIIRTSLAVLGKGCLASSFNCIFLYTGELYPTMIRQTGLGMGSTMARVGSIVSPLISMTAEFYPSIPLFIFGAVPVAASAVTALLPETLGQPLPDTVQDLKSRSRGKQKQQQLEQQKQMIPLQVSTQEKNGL

[2] = target: T1, Solute carrier family 22 member 6; experiment: TP_TRANSPORTER: inhibition of PAH uptake (PAH: 20 uM, Captopril: 1000 uM) in OAT-expressing COS-7 cells; conditions: monkey, cos-7, 1000 µM
[3] = target: T1, Solute carrier family 22 member 6; experiment: TP_TRANSPORTER: inhibition of PAH uptake (PAH: 20 uM, Carprofen: 1000 uM) in OAT-expressing COS-7 cells; conditions: monkey, cos-7, 1000 µM
[4] = target: T1, Solute carrier family 22 member 6; experiment: TP_TRANSPORTER: inhibition of PAH uptake (PAH: 20 uM, Diclofenac: 1000 uM) in OAT-expressing COS-7 cells; conditions: monkey, cos-7, 1000 µM
[5] = target: T1, Solute carrier family 22 member 6; experiment: TP_TRANSPORTER: inhibition of PAH uptake (PAH: 20 uM, Enalapril: 1000 uM) in OAT-expressing COS-7 cells; conditions: monkey, cos-7, 1000 µM
[6] = target: T1, Solute carrier family 22 member 6; experiment: TP_TRANSPORTER: inhibition of PAH uptake (PAH: 20 uM, Folic acid: 1000 uM) in OAT-expressing COS-7 cells; conditions: monkey, cos-7, 1000 µM
[7] = target: T1, Solute carrier family 22 member 6; experiment: TP_TRANSPORTER: inhibition of PAH uptake (PAH: 20 uM, Indomethacin: 1000 uM) in OAT-expressing COS-7 cells; conditions: monkey, cos-7, 1000 µM
[8] = target: T1, Solute carrier family 22 member 6; experiment: TP_TRANSPORTER: inhibition of PAH uptake (PAH: 20 uM, Pantothenic acid: 1000 uM) in OAT-expressing COS-7 cells; conditions: monkey, cos-7, 1000 µM
[9] = target: T1, Solute carrier family 22 member 6; experiment: TP_TRANSPORTER: inhibition of PAH uptake (PAH: 20 uM, Riboflavin: 1000 uM) in OAT-expressing COS-7 cells; conditions: monkey, cos-7, 1000 µM
[10] = target: T1, Solute carrier family 22 member 6; experiment: TP_TRANSPORTER: inhibition of PAH uptake (PAH: 20 uM, Semustine: 300 uM) in OAT-expressing COS-7 cells; conditions: monkey, cos-7, 300 µM
[11] = target: T1, Solute carrier family 22 member 6; experiment: TP_TRANSPORTER: inhibition of PAH uptake (PAH: 20 uM, Sulindac: 1000 uM) in OAT-expressing COS-7 cells; conditions: monkey, cos-7, 1000 µM

For O=C(O)CCC(=O)C(=O)O [ALPHA-KETOGLUTARIC ACID], the Activity [1] was “inhibitor [(at a rough estimate) 10 % of control]”.
In the case of C[C@H](CS)C(=O)N1CCC[C@H]1C(=O)O [CAPTOPRIL], the Activity [2] is reported as “inhibitor [(at a rough estimate) 50 % of control]”.
CC(C(=O)O)c1ccc2c(c1)[nH]c1ccc(Cl)cc12 (stereo unspecified) [CARPROFEN] was tested, and the Activity [3] was “inhibitor [(at a rough estimate) 5 % of control]”.
O=C(O)Cc1ccccc1Nc1c(Cl)cccc1Cl [DICLOFENAC] was tested, and the Activity [4] was “inhibitor [(at a rough estimate) 5 % of control]”.
CCOC(=O)[C@H](CCc1ccccc1)N[C@@H](C)C(=O)N1CCC[C@H]1C(=O)O [ENALAPRIL] was tested, and the Activity [5] was “inhibitor [(at a rough estimate) 45 % of control]”.
For Nc1nc2ncc(CNc3ccc(C(=O)N[C@@H](CCC(=O)O)C(=O)O)cc3)nc2c(=O)[nH]1 [FOLIC ACID], the Activity [6] was “inhibitor [(at a rough estimate) 55 % of control]”.
With COc1ccc2c(c1)c(CC(=O)O)c(C)n2C(=O)c1ccc(Cl)cc1 [INDOMETHACIN] the Activity [7] was “inhibitor [(at a rough estimate) 5 % of control]”.
CC(C)(CO)[C@@H](O)C(=O)NCCC(=O)O [PANTOTHENIC ACID] was tested, and the Activity [8] was “inhibitor [(at a rough estimate) 60 % of control]”.
For Cc1cc2nc3c(=O)[nH]c(=O)nc-3n(C[C@H](O)[C@H](O)[C@H](O)CO)c2cc1C [RIBOFLAVIN], the Activity [9] was “inhibitor [(at a rough estimate) 40 % of control]”.
With CC1CCC(NC(=O)N(CCCl)N=O)CC1 (stereo unspecified) [SEMUSTINE] the Activity [10] was “inhibitor [(at a rough estimate) 35 % of control]”.
CC1=C(CC(=O)O)c2cc(F)ccc2/C1=C\c1ccc([S+](C)[O-])cc1 (stereo unspecified) [SULINDAC] was tested, and the Activity [11] was “inhibitor [(at a rough estimate) 5 % of control]”.
